Tests used:
[1] = test system: Serratia marcescens 63A095; assay: MIC on BHI agar, alone and 1:1 with ampicillin; format: cell-based; details: inhibitor alone; 18 hrs. at 37° C.
Protocol: (§1) The procedure which is followed is the one recommended by the International Collaborative Study on Antibiotic Sensitivity Testing [Ericcson and Sherris, Acta. Pathologica et Microbiologia Scandinav, Supp. 217, Sections A and B: 64-68 (1971)], and employs brain heart infusion (BHI) agar and the inocula replicating device. Overnight growth tubes are diluted 100 fold for use as the standard inoculum (20,000-10,000 cells in approximately 0.002 ml are placed on the agar surface; 20 ml of BHI agar/dish). Twelve 2 fold dilutions of the test compound are employed, with initial concentration of the test drug being 200 mcg/ml. Single colonies are disregarded when reading tubes after 18 hrs. at 37° C. […] These MIC's are then compared with the MIC values obtained with a combination of the given antibiotic and the compound of the formula (6). […] The MIC values of combinations are measured using the method described by Barry and Sabath in "Manual of Clinical Microbiology", edited by Lenette, Spaulding and Truant, 2nd Edition, 1974, American Society for Microbiology.
(§2) For purposes of comparison data on the earlier beta-lactamase inhibitor, penicillanic acid 1,1-dioxide, are included.

[2] = test system: Staphylococcus aureus 01A005; assay: MIC on BHI agar, alone and 1:1 with ampicillin; format: cell-based; details: inhibitor alone; 18 hrs. at 37° C.
Protocol: as §1, §2

[3] = test system: Enterobacter cloacae 67B009; assay: MIC on BHI agar, alone and 1:1 with ampicillin; format: cell-based; details: for MIC: inhibitor alone, 18 hrs. at 37° C.
Protocol: as §1, §2

[4] = test system: Staphylococcus aureus 01A400; assay: MIC on BHI agar, alone and 1:1 with ampicillin; format: cell-based; details: inhibitor alone; 18 hrs. at 37° C.
Protocol: as §1, §2

[5] = test system: Pseudomonas aeruginosa 52A104; assay: MIC on BHI agar, alone and 1:1 with ampicillin; format: cell-based; details: for MIC: inhibitor alone, 18 hrs. at 37° C.
Protocol: as §1, §2

[6] = test system: Klebsiella pneumoniae 53A079; assay: MIC on BHI agar, alone and 1:1 with ampicillin; format: cell-based; details: for MIC: inhibitor alone, 18 hrs. at 37° C.
Protocol: as §1, §2

Escherichia coli 51A266 = assay: MIC on BHI agar, alone and 1:1 with ampicillin; format: cell-based; details: for Response: 1:1 with ampicillin (E); for MIC: inhibitor alone, 18 hrs. at 37° C.
Protocol: as §1, §2

[7] = test system: Citrobacter diversus 70C031; assay: MIC on BHI agar, alone and 1:1 with ampicillin; format: cell-based; details: inhibitor alone; 18 hrs. at 37° C.
Protocol: as §1, §2

Proteus morgani 57G001 = assay: MIC on BHI agar, alone and 1:1 with ampicillin; format: cell-based; details: inhibitor alone; 18 hrs. at 37° C.
Protocol: as §1, §2

[8] = test system: Escherichia coli-R 51A129; assay: MIC on BHI agar, alone and 1:1 with ampicillin; format: cell-based; details: for MIC: inhibitor alone, 18 hrs. at 37° C.
Protocol: as §1, §2

[9] = test system: Enterobacter cloacae 67B009 cell free beta-lactamase; assay: Inhibition of cell-free beta-lactamase (microiodometric), E. cloacae 67B009; format: biochemical; details: for beta-lactamase inhibiting activity, in words: Enterobacter cloacae; for % Inhibition Beta-Lactam Hydrolysis: Penicillin G 33 μM
Protocol: (§3) The compounds of the present invention are thus evaluated in vitro by the ability of the compound (13) to inhibit the hydrolysis of certain beta-lactam antibiotics by beta-lactamase enzymes. The hydrolysis of ampicillin and penicillin G was determined by the microiodometric method of Novick [Biochem, J. 83, 236 (1962)]. Conditions for this assay are 0.5 M potassium phosphate, pH 6.5 and 37° C. Reactions were initiated by the addition of the cell-free beta-lactamase, except in the case of preincubation experiments in which the inhibitor and enzyme were incubated together in the assay mixture for 10 minutes before initiation of the reaction by addition of substrate. With the cell-free extracts of Staphylococcus aureus, Escherichia coli, Klebsiella pneumoniae and Pseudomonas aeruginosa, the substrate was ampicillin at 33 micro M (13 microg./ml).
(§4) Cell-free extracts were prepared by sonic treatment (using three 30-s bursts at 4° C. except for S. aureus, which was broken with a French press) of cultures grown in brain heart infusion on a rotary shaker incubator. For the S. aureus, P. aeruginose, and E. cloacae strains, de novo synthesis of beta-lactamase was induced by growing a log-phase culture in the presence of a sublethal concentration of penicillin G at 100, 1,000, and 300 microg./ml, respectively, for 2.5 hr.

[10] = test system: Pseudomonas aeruginosa 52A104 cell free beta-lactamase; assay: Inhibition of cell-free beta-lactamase (microiodometric), P. aeruginosa 52A104; format: biochemical; details: for beta-lactamase inhibiting activity, in words: Pseudomonas aeruginosa; for % Inhibition Beta-Lactam Hydrolysis: Penicillin G 33 μM, pH 6.5, 37° C.
Protocol: as §3, with “With the cell-free extracts of Staphylococcus aureus, Escherichia coli, Klebsiella pneumoniae and Pseudomonas aeruginosa, the substrate was ampicillin at 33 micro M (13 microg./ml).” left out
as §4

[11] = test system: a variety of microorganisms; assay: Enhancement of ampicillin effectiveness (MIC of combinations), overall statement; format: cell-based; details: 1:1 with ampicillin; summary of Table II
Protocol: The procedure which is followed is the one recommended by the International Collaborative Study on Antibiotic Sensitivity Testing [Ericcson and Sherris, Acta. Pathologica et Microbiologia Scandinav, Supp. 217, Sections A and B: 64-68 (1971)], and employs brain heart infusion (BHI) agar and the inocula replicating device. Overnight growth tubes are diluted 100 fold for use as the standard inoculum (20,000-10,000 cells in approximately 0.002 ml are placed on the agar surface; 20 ml of BHI agar/dish). Twelve 2 fold dilutions of the test compound are employed, with initial concentration of the test drug being 200 mcg/ml. Single colonies are disregarded when reading tubes after 18 hrs. at 37° C. The susceptibility (MIC) of the test organism is accepted as the lowest concentration of compound capable of producing complete inhibition of growth as judged by the naked eye. The manner in which the said compounds of the formula (B) increase the effectiveness of a beta-lactam antibiotic can be appreciated by reference to experiments in which the MIC of a given antibiotic alone, and a compound of the formula (6) alone, are measured. […] The MIC values of combinations are measured using the method described by Barry and Sabath in "Manual of Clinical Microbiology", edited by Lenette, Spaulding and Truant, 2nd Edition, 1974, American Society for Microbiology. […]

[12] = inhibitor 1.0 μM, pH 6.5, 37° C.
[13] = inhibitor 16.5 μM, pH 6.5, 37° C.
[14] = inhibitor 66 μM, pH 6.5, 37° C.

**Q.** What does the source list for `CC1(C)[C@H](C(=O)O)N2C(=O)C[C@H]2S1(=O)=O` [B, Penicillanic acid 1,1-dioxide]?
**A.** MIC [1]: 200 µg/mL; MIC [2]: 100 µg/mL; Response ([3]; 1:1 with ampicillin (E)): S; MIC [3]: 100 µg/mL; MIC [4]: 200 µg/mL; MIC [5]: > 200 µg/mL; Response ([6]; 1:1 with ampicillin (E)): S; MIC [6]: 50 µg/mL; Response (Escherichia coli 51A266): N; MIC (Escherichia coli 51A266): 25 µg/mL; MIC [7]: 200 µg/mL; MIC (Proteus morgani 57G001): 200 µg/mL; MIC [8]: 200 µg/mL; beta-lactamase inhibiting activity, in words [9]: at best a low order of activity; % Inhibition Beta-Lactam Hydrolysis [9, 12]: 0%; % Inhibition Beta-Lactam Hydrolysis [9, 13]: 0%; % Inhibition Beta-Lactam Hydrolysis [9, 14]: 0%; % Inhibition Beta-Lactam Hydrolysis ([9]; inhibitor 66 μM, preincubation of inhibitor and enzyme 10 minutes): 26%; beta-lactamase inhibiting activity, in words [10]: at best a low order of activity; % Inhibition Beta-Lactam Hydrolysis ([10]; inhibitor 66 μM): 0%

**Q.** With `CC1(C)[C@H](C(=O)O)N2C(=O)[C@@H](CO)[C@H]2S1(=O)=O` [compound (6), 6-beta-(hydroxymethyl)penicillanic acid 1,1-dioxide] as the compound, how does the “enhanced spectrum and potency with ampicillin, in words” value [11] read?
**A.** synergy or pronounced synergy

**Q.** Which “beta-lactamase inhibiting activity, in words” value [9] does the source give for `CC1(C)[C@H](C(=O)O)N2C(=O)[C@@H](CO)[C@H]2S1(=O)=O` [A, 6-beta-(Hydroxymethyl)penicillanic acid 1,1-dioxide] here?
**A.** Especially noteworthy

**Q.** And the “% Inhibition Beta-Lactam Hydrolysis” value [9, 12]?
**A.** 11.4%

**Q.** And the “% Inhibition Beta-Lactam Hydrolysis” value [9, 13]?
**A.** 52.0%

**Q.** And the “% Inhibition Beta-Lactam Hydrolysis” value [9, 14]?
**A.** 77.0%

**Q.** And the “beta-lactamase inhibiting activity, in words” value [10]?
**A.** Especially noteworthy

**Q.** And the “% Inhibition Beta-Lactam Hydrolysis” value ([10]; inhibitor 1.0 μM)?
**A.** 21.7%

**Q.** And the “% Inhibition Beta-Lactam Hydrolysis” value ([10]; inhibitor 16.5 μM)?
**A.** 93.4%

**Q.** And the “% Inhibition Beta-Lactam Hydrolysis” value ([10]; inhibitor 66 μM)?
**A.** 98.8%

**Q.** `CC1(C)[C@H](C(=O)O)N2C(=O)[C@@H](CO)[C@H]2S1(=O)=O` [C, 6-beta-(Hydroxymethyl)penicillanic acid 1,1-Dioxides] was tested. Which MIC [1] did it give?
**A.** 200 µg/mL

**Q.** And the MIC [2]?
**A.** > 200 µg/mL

**Q.** What about the MIC [3] of the same compound?
**A.** 100 µg/mL

**Q.** What about the MIC [4] of the same compound?
**A.** > 200 µg/mL

**Q.** And the Response ([5]; 1:1 with ampicillin (E))?
**A.** S

**Q.** And the MIC [5]?
**A.** > 200 µg/mL

**Q.** And the MIC [6]?
**A.** 50 µg/mL

**Q.** And the Response (Escherichia coli 51A266)?
**A.** N

**Q.** What about the MIC (Escherichia coli 51A266) of the same compound?
**A.** 50 µg/mL

**Q.** What about the MIC [7] of the same compound?
**A.** 200 µg/mL

**Q.** And the MIC (Proteus morgani 57G001)?
**A.** > 200 µg/mL

**Q.** And the Response ([8]; 1:1 with ampicillin (E))?
**A.** S

**Q.** And the MIC [8]?
**A.** 50 µg/mL

Source: patent US4376076A, “Bis-esters of 1,1-alkanediols with 6-beta-hydroxymethylpenicillanic acid 1,1-dioxide” (priority 1982, dated 1983)
